In patent publication US20230212152A1, “INHIBITORS OF CYSTEINE PROTEASES AND METHODS OF USE THEREOF” (priority 2020, published 2023):
pEC50, pIC50: −log10 of the molar value. Where two headings read alike, the source gives them in different places.

Experiments:
SARS-CoV2 Mpro = SARS-CoV2 Mpro (Severe acute respiratory syndrome coronavirus 2, UniProt P0DTD1); experiment: SARS-CoV2 Mpro enzymatic assay; format: biochemical; conditions: 25 nM Mpro, 25 μM substrate
229E Mpro = target: T1, 229E Mpro (Human coronavirus 229E, UniProt P0C6X1); experiment: 229E Mpro assay (Table 3); format: biochemical, HCoV 229E
T1 construct: 229E Mpro
T1 sequence (P0C6X1 2966-3267): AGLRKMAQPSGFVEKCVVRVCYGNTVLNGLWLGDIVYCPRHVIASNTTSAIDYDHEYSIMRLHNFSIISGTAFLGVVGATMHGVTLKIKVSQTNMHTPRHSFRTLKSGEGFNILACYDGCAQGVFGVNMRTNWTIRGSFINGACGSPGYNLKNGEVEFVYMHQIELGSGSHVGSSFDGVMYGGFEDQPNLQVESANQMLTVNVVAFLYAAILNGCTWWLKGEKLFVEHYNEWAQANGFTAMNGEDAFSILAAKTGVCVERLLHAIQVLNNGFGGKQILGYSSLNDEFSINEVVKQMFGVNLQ
Protocol: Compounds are assayed using standard methods to assess compound activity and IC50. […] The assay buffer contains 20 mM of Tris-HCl (pH 7.3), 100 mM of NaCl, 1 mM of EDTA, 5 mM of TCEP and 0.1% BSA.

Row | SMILES | pIC50 (SARS-CoV2 Mpro) | pEC50 (229E Mpro; 229E Mpro EC50) | pEC50 (229E Mpro; read-out: 229E Mpro EC50)
1 | CC1(C)C[C@@H](C[C@@H](C#N)NC(=O)[C@@H]2CC3(CCCCC3)CN2C(=O)[C@@H](NC(=O)C(F)(F)F)C(C)(C)C)C(=O)N1 [Compound 3073, (3S)-N-[(1S)-1-cyano-2-[(3R)-5,5-dimethyl-2-oxo-pyrrolidin-3-yl]ethyl]-2-[(2S)-3,3-dimethyl-2-[(2,2,2-trifluoroacetyl)amino]butanoyl]-2-azaspiro[4.5]decane-3-carboxamide] | > 5.70 | 5.00 to 5.70 | 
2 | COc1cc(Cl)c2[nH]c(C(=O)N3CC4(CCCCC4)CC3C(=O)N[C@H](C#N)C[C@@H]3CCNC3=O)cc2c1 (single isomer, unassigned) [896 (Isomer 1)] | > 5.70 |  | > 5.70
3 | COc1cccc2[nH]c(C(=O)N3C[C@H](C4CCCCC4)C[C@H]3C(=O)N[C@H](C#N)C[C@@H]3CCNC3=O)cc12 [Compound 167, (2S,4S)-N-((S)-1-cyano-2-((S)-2-oxopyrrolidin-3-yl)ethyl)-4-cyclohexyl-1-(4-methoxy-1H-indole-2-carbonyl)pyrrolidine-2-carboxamide] |  |  | 5.00 to 5.70
4 | CC(C)(C)C[C@H](NC(=O)[C@@H](NC(=O)C(F)(F)F)C(C)(C)C)C(=O)N[C@H](C#N)C[C@@H]1CC(C)(C)NC1=O [Compound 3069, (S)-N-((S)-1-cyano-2-((R)-5,5-dimethyl-2-oxopyrrolidin-3-yl)ethyl)-2-((S)-3,3-dimethyl-2-(2,2,2-trifluoroacetamido)butanamido)-4,4-dimethylpentanamide] | > 5.70 | < 4.52 | 
5 | CC(C)(C)C[C@H](NC(=O)[C@@H](NC(=O)C(F)(F)F)C(C)(C)C)C(=O)N[C@H](C#N)C[C@@H]1CCCNC1=O [Compound 3129, (S)-N-((S)-1-cyano-2-((S)-2-oxopiperidin-3-yl)ethyl)-2-((S)-3,3-dimethyl-2-(2,2,2-trifluoroacetamido)butanamido)-4,4-dimethylpentanamide] | > 5.70 | > 5.70 | 
6 | CC(C)(C)C[C@H](NC(=O)[C@@H](NC(=O)C(F)(F)F)C(C)(C)C)C(=O)N[C@H](C#N)C[C@@H]1CC2(CC2)NC1=O [Compound 3037] | > 5.70 | > 5.70 | 
7 | CC1(C)C[C@@H](C[C@@H](C#N)NC(=O)C2CC3(CCC3)CN2C(=O)[C@@H](NC(=O)C(F)(F)F)C(C)(C)C)C(=O)N1 (single isomer, unassigned) [3071a (Isomer 2)] | < 4.52 | < 4.52 | 
8 | CC1(C)C[C@@H](C[C@@H](C#N)NC(=O)C2CC3(CCC3)CN2C(=O)[C@@H](NC(=O)C(F)(F)F)C(C)(C)C)C(=O)N1 (single isomer, unassigned) [3071a (Isomer 1)] | > 5.70 | 5.00 to 5.70 | 
9 | CC1(C)C[C@@H](C[C@@H](C#N)NC(=O)[C@@H]2[C@@H]3[C@H](CN2C(=O)[C@@H](NC(=O)C(F)(F)F)C(C)(C)C)C3(C)C)C(=O)N1 (single isomer, unassigned) [3075 (Isomer 1)] | > 5.70 | < 4.52 | 
10 | COc1cc(Cl)c2[nH]c(C(=O)N3CC4(CCCCC4)CC3C(=O)N[C@H](C#N)C[C@@H]3CCNC3=O)cc2c1 (single isomer, unassigned) [896 (Isomer 2)] | < 4.52 |  | < 4.52
11 | CN(C(=O)[C@@H](NC(=O)C(F)(F)F)C(C)(C)C)[C@@H](CC1CC1)C(=O)N[C@H](C#N)C[C@@H]1CCCNC1=O [Compound 3131] | > 5.70 | 4.52 to 5.00 | 
12 | COc1cccc2[nH]c(C(=O)N[C@@H](CC3CC3)C(=O)N[C@H](C#N)C[C@@H]3CCCNC3=O)cc12 (single isomer, unassigned) [491A (Isomer 1)] |  | < 4.52 | 
13 | COc1cccc2[nH]c(C(=O)N3C[C@H]4CC[C@H]4[C@@H]3C(=O)N[C@H](C#N)C[C@@H]3CCNC3=O)cc12 (single isomer, unassigned) [547 (Isomer 2)] |  |  | > 5.70
14 | Cc1ccn([C@H](CC2CC2)C(=O)N[C@H](C#N)C[C@@H]2CCNC2=O)c(=O)c1NCC(F)(F)F (single isomer, unassigned) [451 (Isomer 1)] |  |  | < 4.52
15 | N#C[C@H](C[C@@H]1CCNC1=O)NC(=O)[C@@H]1CCc2ccc(NCC(=O)O)c(=O)n21 [Compound 501, 2-[[(3S)-3-[[(1S)-1-cyano-2-[(3S)-2-oxopyrrolidin-3-yl]ethyl]carbamoyl]-5-oxo-2,3-dihydro-1H-indolizin-6-yl]amino]acetic acid] |  |  | < 4.52
16 | CC(C)(C)[C@H](NC(=O)C(F)(F)F)C(=O)N1C[Si](C)(C)C[C@H]1C(=O)N[C@H](C#N)C[C@@H]1CC2(CC2)NC1=O [Compound 3135] | > 5.70 |  | > 5.70
17 | COc1cccc2[nH]c(C(=O)N[C@H](CC3CC3)C(=O)N[C@H](C#N)C[C@@H]3CCCNC3=O)cc12 (single isomer, unassigned; isomer 2) [491A (Isomer 2)] |  |  | > 5.70

Row | SMILES | pIC50 (SARS-CoV2 Mpro) | pEC50 (229E Mpro; 229E Mpro EC50) | pEC50 (229E Mpro; read-out: 229E Mpro EC50)
18 | CC(C)(C)[C@H](NC(=O)C(F)(F)F)C(=O)N1CC2(CCC2)CC1C(=O)N[C@H](C#N)C[C@@H]1CC2(CC2)NC1=O (stereo partly drawn) [Compound 3039b] | > 5.70 | > 5.70 | 
19 | CC1(C)C[C@@H](C[C@@H](C#N)NC(=O)[C@@H]2[C@@H]3[C@H](CN2C(=O)[C@@H](NC(=O)C(F)(F)F)C(C)(C)C)C3(C)C)C(=O)N1 [Compound 3075, (1R,2S,5S)-N-((S)-1-cyano-2-((R)-5,5-dimethyl-2-oxopyrrolidin-3-yl)ethyl)-3-((S)-3,3-dimethyl-2-(2,2,2-trifluoroacetamido)butanoyl)-6,6-dimethyl-3-azabicyclo[3.1.0]hexane-2-carboxamide] | > 5.70 | 4.52 to 5.00 | 
20 | N#CC(CC1CCNC1=O)NC(=O)C1CCc2ccc(NCC(=O)Oc3ccccc3)c(=O)n21 (single isomer, unassigned) [483 (Isomer 2)] |  | < 4.52 | 
21 | CC(C)(C)[C@H](NC(=O)C(F)(F)F)C(=O)N1CC2(CCCCC2)C[C@H]1C(=O)N[C@H](C#N)C[C@@H]1CC2(CC2)NC1=O [Compound 3041] | > 5.70 | > 5.70 | 
22 | COc1cccc2[nH]c(C(=O)N[C@@H](CC3CC3)C(=O)N[C@H](C#N)C[C@@H]3CCCNC3=O)cc12 (single isomer, unassigned) [271A (Isomer 1)] |  |  | < 4.52
23 | CC(C)(C)[C@H](NC(=O)C(F)(F)F)C(=O)N[C@@H](CC1CC1(F)F)C(=O)N[C@H](C#N)C[C@@H]1CC2(CC2)NC1=O (stereo partly drawn) [Compound 3045] | > 5.70 | > 5.70 | 
24 | CC1(C)C[C@@H](C[C@@H](C#N)NC(=O)[C@@H]2[C@@H]3[C@H](CN2C(=O)[C@@H](NC(=O)C(F)(F)F)C(C)(C)C)C3(C)C)C(=O)N1 (single isomer, unassigned) [3075 (Isomer 2)] | > 5.70 | 4.52 to 5.00 | 
25 | CC(C)(C)[C@H](NC(=O)C(F)(F)F)C(=O)N1C[C@H]2[C@@H]([C@H]1C(=O)N[C@H](C#N)C[C@@H]1CCCNC1=O)C2(C)C [Compound 3133, (1R,2S,5S)-N-[(1S)-1-cyano-2-[(3S)-2-oxo-3-piperidyl]ethyl]-3-[(2S)-3,3-dimethyl-2-[(2,2,2-trifluoroacetyl)amino]butanoyl]-6,6-dimethyl-3-azabicyclo[3.1.0]hexane-2-carboxamide] | > 5.70 | > 5.70 | 
26 | CC1(C)C[C@@H](C[C@@H](C#N)NC(=O)[C@H](CC2CC2)NC(=O)[C@@H](NC(=O)C(F)(F)F)C(C)(C)C)C(=O)N1 [Compound 3065, (S)-N-((S)-1-(((S)-1-cyano-2-((R)-5,5-dimethyl-2-oxopyrrolidin-3-yl)ethyl)amino)-3-cyclopropyl-1-oxopropan-2-yl)-3,3-dimethyl-2-(2,2,2-trifluoroacetamido)butanamide] | > 5.70 | < 4.52 | 
27 | N#C[C@H](C[C@@H]1CCNC1=O)NC(=O)[C@@H]1CS[C@H]2CC[C@H](NCC(F)(F)F)C(=O)N21 [Compound 455, (3R,6S,8aS)-N-[(1S)-1-cyano-2-[(3S)-2-oxopyrrolidin-3-yl]ethyl]-5-oxo-6-(2,2,2-trifluoroethylamino)-2,3,6,7,8,8a-hexahydrothiazolo[3,2-a]pyridine-3-carboxamide] |  |  | < 4.52
28 | Cc1ccn(C(CC2CC2)C(=O)N[C@H](C#N)C[C@@H]2CCNC2=O)c(=O)c1NCC(F)(F)F (single isomer, unassigned) [451 (Isomer 2)] |  | 4.52 to 5.00 | 
29 | COc1cccc2[nH]c(C(=O)N3CC4(CCCCC4)CC3C(=O)N[C@H](C#N)C[C@@H]3CCCNC3=O)cc12 (single isomer, unassigned) [603a (Isomer 2)] |  |  | < 4.52
30 | Cc1ccn([C@H](CC2CC2)C(=O)N[C@H](C#N)C[C@@H]2CCNC2=O)c(=O)c1NC(=O)OC(C)(C)C (single isomer, unassigned) [591 (Isomer 1)] |  |  | < 4.52
31 | CC(C)(C)[C@H](NC(=O)C(F)(F)F)C(=O)N1C[C@H]2[C@@H]([C@H]1C(=O)N[C@H](C#N)C[C@@H]1CC3(CC3)NC1=O)C2(C)C [Compound 3043] | > 5.70 | > 5.70 | 
32 | CC1(C)CC(C[C@@H](C#N)NC(=O)[C@H](CC2CC2)NC(=O)c2cc3cccc(Cl)c3[nH]2)C(=O)N1 (single isomer, unassigned) [1053 (Isomer 2)] |  |  | 4.52 to 5.00
33 | CC(C)(C)[C@H](NC(=O)C(F)(F)F)C(=O)N1CC2(CCC2)CC1C(=O)N[C@H](C#N)C[C@@H]1CC2(CC2)NC1=O (single isomer, unassigned) [3039a (Isomer 1)] | > 5.70 | 5.00 to 5.70 | 
34 | COc1cccc2[nH]c(C(=O)N3CC4(CCC4)CC3C(=O)N[C@H](C#N)C[C@@H]3CCNC3=O)cc12 (single isomer, unassigned) [399A (Isomer 2)] |  |  | 4.52 to 5.00
